Earlier results as cited in patent publication US20160281133A1, “STABILIZATION AND ISOLATION OF EXTRACELLULAR NUCLEIC ACIDS” (QIAGEN GMBH, priority 2013, published 2016).
Read-outs that look alike come from different tables or passages of the source. Where a SMILES comes first, the peptide text is derived from it. [ ]: non-standard residue; d: D form. Nle = CCCC[CH](N)C(=O)O

Columns and labels:
[1] = biological target: calpain I (Homo sapiens, UniProt P07384); settings: cited from earlier work
[2] = biological target: cathepsin L (Homo sapiens, UniProt P07711); settings: cited from earlier work
[3] = biological target: T1, calpain II (Homo sapiens, UniProt P17655); settings: cited from earlier work
T1 sequence (P17655 1-700): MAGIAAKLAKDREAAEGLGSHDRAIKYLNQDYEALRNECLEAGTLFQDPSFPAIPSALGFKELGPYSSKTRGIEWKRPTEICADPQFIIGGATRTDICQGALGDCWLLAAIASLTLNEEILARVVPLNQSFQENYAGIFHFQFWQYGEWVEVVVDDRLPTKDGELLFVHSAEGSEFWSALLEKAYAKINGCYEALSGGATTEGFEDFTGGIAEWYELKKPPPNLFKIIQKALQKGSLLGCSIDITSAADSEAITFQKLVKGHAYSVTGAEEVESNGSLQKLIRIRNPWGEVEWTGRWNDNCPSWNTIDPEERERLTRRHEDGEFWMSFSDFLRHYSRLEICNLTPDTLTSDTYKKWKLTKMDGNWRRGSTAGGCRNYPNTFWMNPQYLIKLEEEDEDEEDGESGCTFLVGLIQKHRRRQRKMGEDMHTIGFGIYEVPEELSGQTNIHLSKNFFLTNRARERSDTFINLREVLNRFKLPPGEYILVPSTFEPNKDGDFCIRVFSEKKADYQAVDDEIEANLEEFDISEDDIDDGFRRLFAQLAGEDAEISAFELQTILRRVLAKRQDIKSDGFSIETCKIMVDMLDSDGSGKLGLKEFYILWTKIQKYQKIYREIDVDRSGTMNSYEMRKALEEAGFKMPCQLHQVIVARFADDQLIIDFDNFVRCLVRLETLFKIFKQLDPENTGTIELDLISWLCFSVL
T1 sequence (P04632 1-268 partner): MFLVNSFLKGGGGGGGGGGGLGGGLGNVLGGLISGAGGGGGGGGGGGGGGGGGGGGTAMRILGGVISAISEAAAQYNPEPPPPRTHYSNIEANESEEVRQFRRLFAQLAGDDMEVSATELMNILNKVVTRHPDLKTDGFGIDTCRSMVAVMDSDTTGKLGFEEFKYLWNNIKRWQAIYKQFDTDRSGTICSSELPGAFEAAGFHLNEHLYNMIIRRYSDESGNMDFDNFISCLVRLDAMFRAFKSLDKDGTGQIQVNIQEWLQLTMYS

[4] = biological target: anthrax lethal factor (Bacillus anthracis, UniProt P15917); settings: cited from earlier work
[5] = biological target: caspase-8 (Homo sapiens, UniProt Q14790); settings: cited from earlier work
[6] = tested on: COX-2; settings: cited from earlier work
[7] = biological target: COX-1 (Homo sapiens, UniProt P23219); settings: cited from earlier work
[8] = tested on: pancreatic duct cells; settings: cited from earlier work
[9] = tested on: various other serine proteases; settings: cited from earlier work
[10] = biological target: T2, Omi/HtrA2 (His-Omi134-458) (Homo sapiens, UniProt O43464); settings: for His-Omi134-458; cited from earlier work
T2 construct: His-Omi134-458; His (N)

[11] = in neuron culture medium at 37° C.; cited from earlier work
[12] = tested on: etoposide-induced cortical neuron death; settings: cited from earlier work
[13] = tested on: TNF-induced inhibition of DNA synthesis; settings: cited from earlier work
[14] = tested on: TNF-induced PMN-EC adhesion; settings: cited from earlier work
[15] = tested on: PKC; settings: cited from earlier work
[16] = tested on: proliferation; settings: cited from earlier work
[17] = tested on: LDH % release; settings: cited from earlier work
[18] = tested on: PI3K; settings: cited from earlier work
[19] = biological target: T3, caspase-10 (Homo sapiens, UniProt Q92851); settings: value type not repeated in the cell; cited from earlier work
T3 sequence (Q92851 220-415 limits assumed): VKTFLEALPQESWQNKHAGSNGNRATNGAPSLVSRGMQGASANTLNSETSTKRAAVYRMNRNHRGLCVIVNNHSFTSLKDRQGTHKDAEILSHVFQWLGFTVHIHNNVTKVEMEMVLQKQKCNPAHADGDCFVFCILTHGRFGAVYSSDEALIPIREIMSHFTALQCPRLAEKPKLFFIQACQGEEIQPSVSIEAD
T3 sequence (Q92851 416-521 limits assumed): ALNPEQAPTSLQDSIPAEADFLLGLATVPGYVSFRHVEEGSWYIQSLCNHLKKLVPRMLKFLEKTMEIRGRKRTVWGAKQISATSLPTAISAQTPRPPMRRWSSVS

[20] = biological target: T4, caspase-1 (Homo sapiens, UniProt P29466); settings: cited from earlier work
T4 sequence (P29466 120-297 limits assumed): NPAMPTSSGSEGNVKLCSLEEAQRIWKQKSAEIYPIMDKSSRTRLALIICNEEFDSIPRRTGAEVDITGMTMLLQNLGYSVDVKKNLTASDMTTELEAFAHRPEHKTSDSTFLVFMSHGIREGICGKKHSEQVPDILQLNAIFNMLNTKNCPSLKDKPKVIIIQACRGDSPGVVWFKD
T4 sequence (P29466 317-404 limits assumed): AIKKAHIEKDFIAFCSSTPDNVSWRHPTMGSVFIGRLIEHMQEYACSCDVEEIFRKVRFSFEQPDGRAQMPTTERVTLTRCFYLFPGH

[21] = tested on: myocardial infarct size; settings: during reperfusion; cited from earlier work
[22] = biological target: Stat3 (Homo sapiens, UniProt P40763); settings: read-out: DB50 (concentration of peptide at which DNA-binding activity is inhibited by 50%); cited from earlier work
[23] = biological target: T4, caspase-1; settings: cited from earlier work; remark: listed apart in the source
[24] = biological target: T5, caspase-3 (Homo sapiens, UniProt P42574); settings: cited from earlier work
T5 sequence (P42574 29-175 limits assumed): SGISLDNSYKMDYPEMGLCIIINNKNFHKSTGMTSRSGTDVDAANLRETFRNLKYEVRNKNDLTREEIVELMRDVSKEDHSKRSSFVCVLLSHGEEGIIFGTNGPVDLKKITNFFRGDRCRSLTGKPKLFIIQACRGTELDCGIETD
T5 sequence (P42574 176-277 limits assumed): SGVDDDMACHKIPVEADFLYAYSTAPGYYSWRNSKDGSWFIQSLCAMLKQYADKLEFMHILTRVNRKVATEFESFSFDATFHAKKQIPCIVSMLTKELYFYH

[25] = biological target: T6, caspase-2 (Homo sapiens, UniProt P42575); settings: cited from earlier work
T6 sequence (P42575 170-325 limits assumed): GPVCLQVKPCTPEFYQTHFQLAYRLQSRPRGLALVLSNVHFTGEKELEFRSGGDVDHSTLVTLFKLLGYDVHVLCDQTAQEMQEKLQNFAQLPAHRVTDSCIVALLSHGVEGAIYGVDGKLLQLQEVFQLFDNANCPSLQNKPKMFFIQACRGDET
T6 sequence (P42575 348-452 limits assumed): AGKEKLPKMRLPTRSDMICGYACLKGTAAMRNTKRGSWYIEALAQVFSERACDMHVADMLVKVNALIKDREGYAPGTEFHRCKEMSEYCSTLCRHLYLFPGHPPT

[26] = biological target: T7, caspase-7 (Homo sapiens, UniProt P55210); settings: cited from earlier work
T7 sequence (P55210 24-198 limits assumed): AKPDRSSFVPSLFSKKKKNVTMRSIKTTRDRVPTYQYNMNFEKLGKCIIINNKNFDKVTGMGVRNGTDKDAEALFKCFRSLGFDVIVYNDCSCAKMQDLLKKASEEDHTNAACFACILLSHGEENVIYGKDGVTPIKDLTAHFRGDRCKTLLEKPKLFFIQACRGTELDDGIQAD
T7 sequence (P55210 207-303 limits assumed): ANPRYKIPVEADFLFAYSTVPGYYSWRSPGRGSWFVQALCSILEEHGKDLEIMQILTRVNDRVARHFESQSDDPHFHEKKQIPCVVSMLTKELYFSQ

[27] = tested on: Bax-mediated apoptosis; settings: functions as effectively as Caspase Inhibitor VI (Z-VAD-FMK); cited from earlier work

Sequence of COX-1 (P23219 24-599): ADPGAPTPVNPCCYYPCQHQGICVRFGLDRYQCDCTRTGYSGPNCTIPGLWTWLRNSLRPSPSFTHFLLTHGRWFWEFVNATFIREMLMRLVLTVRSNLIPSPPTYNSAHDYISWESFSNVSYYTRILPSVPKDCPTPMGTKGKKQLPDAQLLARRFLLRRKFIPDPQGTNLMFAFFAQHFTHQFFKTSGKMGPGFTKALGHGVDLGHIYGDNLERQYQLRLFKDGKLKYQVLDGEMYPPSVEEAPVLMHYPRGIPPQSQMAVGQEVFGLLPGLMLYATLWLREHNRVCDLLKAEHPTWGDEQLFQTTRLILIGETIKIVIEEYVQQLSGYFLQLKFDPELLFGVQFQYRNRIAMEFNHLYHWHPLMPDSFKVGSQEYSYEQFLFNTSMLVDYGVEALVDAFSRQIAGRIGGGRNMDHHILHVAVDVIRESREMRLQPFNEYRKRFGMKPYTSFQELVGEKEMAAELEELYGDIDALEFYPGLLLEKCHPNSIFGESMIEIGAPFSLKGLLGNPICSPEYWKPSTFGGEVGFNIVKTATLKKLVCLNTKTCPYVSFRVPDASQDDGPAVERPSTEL
Sequence of Stat3 (P40763 whole entry, species assumed): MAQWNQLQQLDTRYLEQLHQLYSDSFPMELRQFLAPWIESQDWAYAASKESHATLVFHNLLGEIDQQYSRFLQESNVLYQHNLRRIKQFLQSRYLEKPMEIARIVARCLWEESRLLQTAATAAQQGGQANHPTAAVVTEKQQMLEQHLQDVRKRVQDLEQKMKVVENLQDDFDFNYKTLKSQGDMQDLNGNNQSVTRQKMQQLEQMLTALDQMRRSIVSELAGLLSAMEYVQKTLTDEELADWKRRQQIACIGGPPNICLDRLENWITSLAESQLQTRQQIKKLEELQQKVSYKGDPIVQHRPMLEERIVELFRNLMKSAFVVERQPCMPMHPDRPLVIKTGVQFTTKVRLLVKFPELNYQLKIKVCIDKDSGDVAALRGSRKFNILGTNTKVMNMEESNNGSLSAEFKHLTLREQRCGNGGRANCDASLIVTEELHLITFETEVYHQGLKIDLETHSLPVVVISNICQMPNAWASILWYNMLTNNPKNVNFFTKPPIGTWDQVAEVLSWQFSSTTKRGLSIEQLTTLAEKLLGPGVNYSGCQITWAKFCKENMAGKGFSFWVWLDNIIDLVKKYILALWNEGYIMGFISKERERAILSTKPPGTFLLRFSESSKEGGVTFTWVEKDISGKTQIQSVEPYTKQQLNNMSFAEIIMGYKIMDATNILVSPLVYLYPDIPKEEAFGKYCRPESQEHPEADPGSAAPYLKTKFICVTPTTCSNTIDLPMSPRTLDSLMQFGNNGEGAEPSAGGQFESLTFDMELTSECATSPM
Sequence of caspase-8 (Q14790 217-374 limits assumed, species assumed): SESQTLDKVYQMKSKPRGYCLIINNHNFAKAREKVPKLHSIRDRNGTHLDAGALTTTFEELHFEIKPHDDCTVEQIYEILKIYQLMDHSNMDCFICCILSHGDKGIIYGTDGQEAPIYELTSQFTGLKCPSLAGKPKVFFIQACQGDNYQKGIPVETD
Sequence of caspase-8 (Q14790 385-479 limits assumed, species assumed): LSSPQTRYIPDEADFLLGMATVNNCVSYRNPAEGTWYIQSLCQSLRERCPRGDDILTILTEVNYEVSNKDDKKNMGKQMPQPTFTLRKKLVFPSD
Sequence of anthrax lethal factor (P15917 34-809 limits assumed): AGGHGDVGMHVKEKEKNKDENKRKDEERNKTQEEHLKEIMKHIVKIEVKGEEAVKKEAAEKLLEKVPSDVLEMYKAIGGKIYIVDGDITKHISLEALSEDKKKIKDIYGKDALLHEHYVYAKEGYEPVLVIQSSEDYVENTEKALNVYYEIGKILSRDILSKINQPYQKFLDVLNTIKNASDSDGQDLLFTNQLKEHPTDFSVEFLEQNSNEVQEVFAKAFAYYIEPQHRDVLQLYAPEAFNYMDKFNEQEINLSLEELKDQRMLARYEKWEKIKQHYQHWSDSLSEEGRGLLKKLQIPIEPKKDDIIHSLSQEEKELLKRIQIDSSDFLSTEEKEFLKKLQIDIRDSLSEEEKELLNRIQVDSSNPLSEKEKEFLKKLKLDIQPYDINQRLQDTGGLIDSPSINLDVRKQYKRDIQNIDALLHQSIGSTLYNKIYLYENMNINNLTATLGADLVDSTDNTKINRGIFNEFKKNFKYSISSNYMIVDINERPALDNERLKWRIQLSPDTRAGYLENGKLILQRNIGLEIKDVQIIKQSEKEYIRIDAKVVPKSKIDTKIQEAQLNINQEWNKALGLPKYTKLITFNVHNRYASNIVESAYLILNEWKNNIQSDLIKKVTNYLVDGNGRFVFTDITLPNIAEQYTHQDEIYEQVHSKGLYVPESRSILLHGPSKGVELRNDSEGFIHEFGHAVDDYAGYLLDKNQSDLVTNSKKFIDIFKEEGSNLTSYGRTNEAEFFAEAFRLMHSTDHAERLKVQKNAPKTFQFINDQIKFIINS
Sequence of calpain I (P07384 whole entry, one chain of several): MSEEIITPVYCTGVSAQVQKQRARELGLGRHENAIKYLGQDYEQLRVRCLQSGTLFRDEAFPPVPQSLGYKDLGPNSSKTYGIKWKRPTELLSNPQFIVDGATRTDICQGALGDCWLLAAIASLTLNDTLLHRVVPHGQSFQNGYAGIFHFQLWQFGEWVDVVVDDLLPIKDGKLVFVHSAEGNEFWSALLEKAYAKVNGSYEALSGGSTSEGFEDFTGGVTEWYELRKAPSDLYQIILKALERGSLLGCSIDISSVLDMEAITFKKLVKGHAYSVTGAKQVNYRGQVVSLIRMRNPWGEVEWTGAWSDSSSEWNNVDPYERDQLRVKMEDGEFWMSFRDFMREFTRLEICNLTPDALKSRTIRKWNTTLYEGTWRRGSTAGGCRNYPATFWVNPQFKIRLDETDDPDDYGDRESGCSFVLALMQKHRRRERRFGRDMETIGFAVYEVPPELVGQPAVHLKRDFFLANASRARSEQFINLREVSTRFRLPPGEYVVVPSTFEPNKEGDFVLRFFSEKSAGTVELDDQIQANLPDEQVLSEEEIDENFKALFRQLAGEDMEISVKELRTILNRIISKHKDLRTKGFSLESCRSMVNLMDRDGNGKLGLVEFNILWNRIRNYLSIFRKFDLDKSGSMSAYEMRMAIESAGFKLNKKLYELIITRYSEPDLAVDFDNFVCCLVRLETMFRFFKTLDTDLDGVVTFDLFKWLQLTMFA
Sequence of cathepsin L (P07711 114-333, species assumed): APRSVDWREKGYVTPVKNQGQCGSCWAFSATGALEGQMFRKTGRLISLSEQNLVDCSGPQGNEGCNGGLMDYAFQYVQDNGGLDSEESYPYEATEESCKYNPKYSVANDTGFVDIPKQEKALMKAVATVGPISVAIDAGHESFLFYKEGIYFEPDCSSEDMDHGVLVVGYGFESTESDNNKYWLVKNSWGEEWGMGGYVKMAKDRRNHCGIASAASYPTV
T2 sequence (O43464 134-458): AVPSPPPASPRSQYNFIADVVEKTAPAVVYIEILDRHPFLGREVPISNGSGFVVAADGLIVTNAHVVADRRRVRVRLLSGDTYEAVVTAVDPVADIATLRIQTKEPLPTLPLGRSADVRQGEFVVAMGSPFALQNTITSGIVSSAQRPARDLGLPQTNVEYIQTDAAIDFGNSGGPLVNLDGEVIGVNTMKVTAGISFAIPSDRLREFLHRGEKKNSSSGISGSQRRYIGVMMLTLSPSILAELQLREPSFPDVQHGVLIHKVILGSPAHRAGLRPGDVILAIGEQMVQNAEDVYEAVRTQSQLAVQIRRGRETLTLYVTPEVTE

CCCCC(C=O)NC(=O)C(CC(C)C)NC(=O)C(CC(C)C)NC(C)=O (stereo not drawn) [Ac-Leu-Leu-Nle-al] (Ac-Leu-Leu-[Nle]-aldehyde; configuration not given here)
Ki [1]: 190 nM
Ki [2]: 0.5 nM
Ki [3]: 150 nM

FC(F)(F)c1cccc(-c2csc(C3COc4ccccc4O3)n2)c1 (stereo not shown) [Caspase Inhibitor X]
effect on activity of anthrax lethal factor [4]: assisted cleavage of BID, a proapoptotic protein. Weakly affects
Ki [5]: 2700 nM

O=c1c(O)c(-c2ccc(O)cc2)oc2cc(O)cc(O)c12 [Kaempferol]
IC50 [6]: < 15000 nM
IC50 [7]: 180000 nM

CCN1C(=O)C=CC1=O [N-Ethylmaleimide]
IC50 [8]: 22000 nM

O=C1C(=Cc2ccc(-c3ccccc3[N+](=O)[O-])o2)C(=O)N(c2ccccc2)C(=S)N1c1ccccc1 [Omi/HtrA2 Protease Inhibitor, Ucf-101]
IC50 [9]: ≥ 200000 nM
IC50 [10]: 9500 nM

O=[N+]([O-])c1ccc(-c2cn3c4c(sc3n2)CCCC4)cc1 [Pifithrin-α, p-Nitro, Cyclic]
longer half-life than Pifithrin-α [11]: 50%
t½ [11]: 6 h
higher potency than Pifithrin-α [12]: A cell-permeable p53 inhibitor that exhibits 10-fold higher potency

O=c1c(O)c(-c2ccc(O)c(O)c2)oc2cc(O)cc(O)c12 [Quercetin(Sophoretin), Quercetin]
IC50 [13]: 6100 nM
IC50 [14]: 16700 nM
IC50 [15]: 15 μg/ml. It strongly abrogated PI3K and Src kinases, mildly
IC50 [16]: 11400 nM
IC50 [17]: 800 nM
IC50 [18]: 3800 nM

Ac-Ile-Glu-Thr-Asp-CHO (Ac-IETD-aldehyde) [Granzyme B Inhibitor II]
Ki [19]: 27 nM
Ki [20]: < 6 nM

Ac-Leu-Glu-His-Asp-CMK (LEHD; HELM PEPTIDE1{[ac].L.E.H.D.[ClC[*:1]]}$$$$V2.0; SMILES CC(=O)N[C@@H](CC(C)C)C(=O)N[C@@H](CCC(=O)O)C(=O)N[C@@H](Cc1c[nH]cn1)C(=O)N[C@@H](CC(=O)O)C(=O)CCl) [Caspase-9 Inhibitor III]
concentration reported to reduce myocardial infarct size [21]: myocardial infarct size during reperfusion (~70 nM).

Ac-Pro-Tyr(PO3H2)-Leu-Lys-Thr-Lys-OH (PYLKTK; HELM PEPTIDE1{[ac].P.[O=C([C@H](Cc1ccc(OP(=O)(O)O)cc1)N[*:1])[*:2]].L.K.T.K}$$$$V2.0; SMILES CC(=O)N1CCC[C@H]1C(=O)N[C@@H](Cc1ccc(OP(=O)(O)O)cc1)C(=O)N[C@@H](CC(C)C)C(=O)N[C@@H](CCCCN)C(=O)N[C@H](C(=O)N[C@@H](CCCCN)C(=O)O)[C@@H](C)O) [STAT3 Inhibitor Peptide]
IC50 [22]: 235000 nM

Ac-Tyr-Val-Ala-Asp-CHO [Caspase-1 Inhibitor I]
Ki [23]: 0.2 nM

Ac-Val-Asp-Val-Ala-Asp-CHO (Ac-VDVAD-aldehyde) [Caspase Inhibitor VIII]
Ki [24]: 1 nM
Ki [25]: 3.5 nM
Ki [26]: 7.5 nM

H-Val-Pro-Met-Leu-Lys-OH (H-VPMLK-OH) [Bax-Inhibiting Peptide, V5]
concentration effective for Bax-mediated apoptosis [27]: mediated apoptosis (~50-200 μM). Also effectively blocks caspase-
